Assay results reported in patent US9994551B2, “Pyridazine derivatives as RORc modulators” (Genentech, Inc., priority 2015, dated 2018).

Target: T1, RORc ligand binding domain (Homo sapiens, UniProt P51449)
T1 construct: host or cells: E. coli
T1 sequence (P51449 269-508 limits assumed): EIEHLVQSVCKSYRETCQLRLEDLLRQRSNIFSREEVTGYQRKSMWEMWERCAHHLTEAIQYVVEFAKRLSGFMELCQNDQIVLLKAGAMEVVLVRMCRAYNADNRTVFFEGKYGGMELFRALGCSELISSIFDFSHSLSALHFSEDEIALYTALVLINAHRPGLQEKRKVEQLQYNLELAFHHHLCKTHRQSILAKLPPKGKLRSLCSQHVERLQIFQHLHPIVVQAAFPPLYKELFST
Assay: In vitro RORc ligand binding assay (25-[3H]hydroxycholesterol displacement, filter binding)
Experimental: This assay was used to determine a compound's potency in inhibiting activity of RORc by determining, Kiapp, IC50, or percent inhibition values.
On day of the assay, 100 uL of 0.05% CHAPS (in deionized H2O) was added to all wells of the GFB Unifilter plate and allowed soak for 1 h. A wash buffer of 50 mM HEPES (pH 7.4), 150 mM NaCl, and 5 mM MgCl2 was prepared to wash the filter plate. To prepare an assay buffer, BSA was added to the wash buffer to reach 0.01% and DTT was added to reach 1 mM.
The 20× compound stocks were diluted in DMSO with Assay Buffer 4-fold to reach 5× the final test concentration in 25% DMSO (10 uL compound+30 uL Assay Buffer). Solutions were mixed by aspiration several times with a pipette set on 50 uL volume. For the assay, 10 uL of 5× compound stock solutions in 25% DMSO were added to the assay plate in duplicate.
For two point screening, 10 mM stock compound solutions were diluted in DMSO to obtain 200 uM (20× the high test concentration) and then diluted 10-fold further to reach 20 uM (20× the low test concentration). The 20× stocks were diluted 4-fold with Assay Buffer (10 uL compound+30 uL Assay Buffer) to reach 5× the test concentrations (50 uM and 5 uM) and 10 uL were added to two assay plates for the duplicate wells. With each concentration tested on 2 plates, each set of 80 compounds used 4 assay plates (1 uM and 10 uM, with n=2).
For 25-hydroxycholesterol in 25% DMSO/75% Assay Buffer; 10 uL per well was used for NSB samples. Wells for Total Binding and No Receptor sample determination contained 10 uL of 25% DMSO/75% Assay Buffer per well.
Add 20 uL to all wells to reach 6 nM final concentration in the assay.
Stock receptor solution was diluted in assay buffer to obtain 1.5 ug/mL in Assay Buffer. 20 uL was added to all wells. For No Receptor samples, 20 uL Assay Buffer was substituted for receptor solution.
Assay plates were 96-well polypropylene V-bottom plates. 10 uL of 5× compound in 25% DMSO/75% Assay Buffer was added to Test wells. 10 uL of 25% DMSO/75% Assay Buffer was added to Total Binding or No Receptor wells. 10 uL of 5 uM 25-hydroxycholesterol in 25% DMSO/75% Assay Buffer was added to NSB wells. […] 20 uL of 1.5 ug/mL RORc receptor was added to wells (or 40 uL Assay Buffer to No R wells). Following addition to the wells, the plates were incubated 3 h at 25° C.
Using a Packard Filtermate Harvester, the filter plate were washed 4 times following transfer of the incubated samples. Plates were dry-filtered completely (2 h at 50° C. or overnight at room temperature). 50 uL Microscint 0 was added to all wells and read on Topcount protocol Inverted.

| Compound | IC50 |
| --- | --- |
| CC[C@@H](C[C@@]12CC[C@@H](c3cc(-c4c(F)cccc4F)nnc31)C2(C)C)C(N)=O [Compound 5, (S)-2-(((5R,8R)-3-(2,6-difluorophenyl)-9,9-dimethyl-5,6,7,8-tetrahydro-5,8-methanocinnolin-8-yl)methyl)butanamide] | 0.0674 µM |
| CC[C@@H](O[C@@]12CC[C@@H](c3cc(-c4c(F)cccc4F)nnc31)C2(C)C)C(=O)NCC(=O)N(C)C [Compound 104, (R)-2-(((5S,8R)-3-(2,6-difluorophenyl)-9,9-dimethyl-5,6,7,8-tetrahydro-5,8-methanocinnolin-8-yl)oxy)-N-(2-(dimethylamino)-2-oxoethyl)butanamide] | 0.0829 µM |
| CC1(C)[C@H]2CC[C@]1(c1ccn3ccnc3n1)c1nnc(-c3c(F)cccc3F)cc12 [Compound 106] | 0.102 µM |
| Cc1cc(O[C@@]23CC[C@@H](c4cc(-c5c(F)cccc5F)nnc42)C3(C)C)ccn1 [Compound 25, (5S,8R)-3-(2,6-difluorophenyl)-9,9-dimethyl-8-((2-methylpyridin-4-yl)oxy)-5,6,7,8-tetrahydro-5,8-methanocinnoline] | 0.844 µM |
| CC[C@@H](O[C@@]12CC[C@@H](c3cc(-c4c(F)cccc4F)nnc31)C2(C)C)C(N)=O [Compound 31, (R)-2-(((5S,8R)-3-(2,6-difluorophenyl)-9,9-dimethyl-5,6,7,8-tetrahydro-5,8-methanocinnolin-8-yl)oxy)butanamide] | 0.0088 µM |
| CC[C@@H](O[C@@]12CC[C@@H](c3cc(-c4c(F)cccc4F)nnc31)C2(C)C)C(=O)NC[C@@H](O)CO [Compound 54, (R)-2-(((5S,8R)-3-(2,6-difluorophenyl)-9,9-dimethyl-5,6,7,8-tetrahydro-5,8-methanocinnolin-8-yl)oxy)-N-((R)-2,3-dihydroxypropyl)butanamide] | 0.0754 µM |
| CC[C@@H](O[C@@]12CC[C@@H](c3cc(-c4c(F)cccc4F)nnc31)C2(C)C)C(=O)NNC(C)=O [Compound 58, (R)-N′-acetyl-2-(((5S,8R)-3-(2,6-difluorophenyl)-9,9-dimethyl-5,6,7,8-tetrahydro-5,8-methanocinnolin-8-yl)oxy)butanehydrazide] | 0.105 µM |
| CC1(C)[C@H]2CC[C@]1(c1cccc3nccn13)c1nnc(-c3c(F)cccc3F)cc12 [Compound 107, (5R,8S)-3-(2,6-difluorophenyl)-8-(imidazo[1,2-a]pyridin-5-yl)-9,9-dimethyl-5,6,7,8-tetrahydro-5,8-methanocinnoline] | 0.0918 µM |
| CC[C@H](C[C@@]12CC[C@@H](c3cc(-c4c(F)cccc4F)nnc31)C2(C)C)C(N)=O [Compound 4, (R)-2-(((5R,8R)-3-(2,6-difluorophenyl)-9,9-dimethyl-5,6,7,8-tetrahydro-5,8-methanocinnolin-8-yl)methyl)butanamide] | 0.0824 µM |
| CC[C@H](O[C@@]12CC[C@@H](c3cc(-c4c(F)cccc4F)nnc31)C2(C)C)C(=O)NCCO [Compound 23, (S)-2-(((5S,8R)-3-(2,6-difluorophenyl)-9,9-dimethyl-5,6,7,8-tetrahydro-5,8-methanocinnolin-8-yl)oxy)-N-(2-hydroxyethyl)butanamide] | 0.0445 µM |
| CC1(C)[C@H]2CC[C@]1(O[C@H](C(N)=O)C1CC1)c1nnc(-c3c(F)cccc3F)cc12 [Compound 45] | 0.132 µM |
| CC[C@@H](O[C@@]12CC[C@@H](c3cc(-c4c(F)cccc4F)nnc31)C2(C)C)C(=O)N1CC(C#N)C1 [Compound 37, 1-((R)-2-(((5S,8R)-3-(2,6-difluorophenyl)-9,9-dimethyl-5,6,7,8-tetrahydro-5,8-methanocinnolin-8-yl)oxy)butanoyl)azetidine-3-carbonitrile] | 0.0689 µM |

More lines, now with the values ahead:

| IC50 | Compound |
| --- | --- |
| 0.139 µM | CC(=O)N1CCC[C@H]([C@@]23CC[C@@H](c4cc(-c5c(F)cccc5F)nnc42)C3(C)C)C1 [Compound 98, 1-((R)-3-((5R,8R)-3-(2,6-difluorophenyl)-9,9-dimethyl-5,6,7,8-tetrahydro-5,8-methanocinnolin-8-yl)piperidin-1-yl)ethanone] |
| 0.0062 µM | CC1(C)[C@H]2CC[C@]1([C@H]1CCCN(C(=O)c3ccon3)C1)c1nnc(-c3c(F)cccc3F)cc12 [Compound 131, [3-[5-(2,6-difluorophenyl)-11,11-dimethyl-3,4-diazatricyclo[6.2.1.02,7]undeca-2,4,6-trien-1-yl]-1-piperidyl]-isoxazol-3-yl-methanone] |
| 0.172 µM | CC1(C)[C@H]2CC[C@]1([C@H]1CN(Cc3ccccc3)CCO1)c1nnc(-c3c(F)cccc3F)cc12 [Compound 61, (S)-4-benzyl-2-((5R,8R)-3-(2,6-difluorophenyl)-9,9-dimethyl-5,6,7,8-tetrahydro-5,8-methanocinnolin-8-yl)morpholine] |
| 0.019 µM | Cc1n[nH]c(N2CCO[C@H]([C@@]34CC[C@@H](c5cc(-c6c(F)cccc6F)nnc53)C4(C)C)C2)n1 [Compound 142, 2-[5-(2,6-difluorophenyl)-11,11-dimethyl-3,4-diazatricyclo[6.2.1.02,7]undeca-2,4,6-trien-1-yl]-4-(3-methyl-1H-1,2,4-triazol-5-yl)morpholine] |
| 0.224 µM | CC1(C)[C@H]2CC[C@]1([C@@H]1CN(S(C)(=O)=O)CCO1)c1nnc(-c3c(F)cccc3F)cc12 [Compound 65, (R)-2-((5R,8R)-3-(2,6-difluorophenyl)-9,9-dimethyl-5,6,7,8-tetrahydro-5,8-methanocinnolin-8-yl)-4-(methylsulfonyl)morpholine] |
| 0.42 µM | CC(C)(C)OC(=O)N1CCN[C@H]([C@@]23CC[C@@H](c4cc(-c5c(F)cccc5F)nnc42)C3(C)C)C1 (single isomer, unassigned) [Compound 114, tert-butyl 3-[5-(2,6-difluorophenyl)-11,11-dimethyl-3,4-diazatricyclo[6.2.1.02,7]undeca-2,4,6-trien-1-yl]piperazine-1-carboxylate] |
| 0.0698 µM | COC(=O)N1CCO[C@H]([C@@]23CC[C@@H](c4cc(-c5c(F)cccc5F)nnc42)C3(C)C)C1 [Compound 85, (R)-methyl 2-((5R,8R)-3-(2,6-difluorophenyl)-9,9-dimethyl-5,6,7,8-tetrahydro-5,8-methanocinnolin-8-yl)morpholine-4-carboxylate] |
| 0.0071 µM | CC1(C)[C@H]2CC[C@]1([C@H]1CCCN(C(=O)c3cccnn3)C1)c1nnc(-c3c(F)cccc3F)cc12 [Compound 168, [3-[5-(2,6-difluorophenyl)-11,11-dimethyl-3,4-diazatricyclo[6.2.1.02,7]undeca-2,4,6-trien-1-yl]-1-piperidyl]-pyridazin-3-yl-methanone] |
| 0.0088 µM | CC1(C)[C@H]2CC[C@]1([C@@H]1CN(c3nc(CO)co3)CCO1)c1nnc(-c3c(F)cccc3F)cc12 [Compound 130, [2-[2-[5-(2,6-difluorophenyl)-11,11-dimethyl-3,4-diazatricyclo[6.2.1.02,7]undeca-2,4,6-trien-1-yl]morpholin-4-yl]oxazol-4-yl]methanol] |
| 0.013 µM | CN1CCN[C@H]([C@@]23CC[C@@H](c4cc(-c5c(F)cccc5F)nnc42)C3(C)C)C1 [Compound 183, 5-(2,6-difluorophenyl)-11,11-dimethyl-1-(4-methylpiperazin-2-yl)-3,4-diazatricyclo[6.2.1.02,7]undeca-2,4,6-triene] |
| 0.0031 µM | CC(C)(C)OC(=O)N1CCNC[C@H]1[C@@]12CC[C@@H](c3cc(-c4c(F)cccc4F)nnc31)C2(C)C [Compound 115, tert-butyl 2-[5-(2,6-difluorophenyl)-11,11-dimethyl-3,4-diazatricyclo[6.2.1.02,7]undeca-2,4,6-trien-1-yl]piperazine-1-carboxylate] |
| 0.0079 µM | CC(C)(O)CNC(=O)N1CCC[C@H]([C@@]23CC[C@@H](c4cc(-c5c(F)cccc5F)nnc42)C3(C)C)C1 [Compound 150, 3-[5-(2,6-difluorophenyl)-11,11-dimethyl-3,4-diazatricyclo[6.2.1.02,7]undeca-2,4,6-trien-1-yl]-N-(2-hydroxy-2-methyl-propyl)piperidine-1-carboxamide] |
